{"source": "patent US20210205417A1", "about": "“PH 7 INJECTABLE SOLUTION COMPRISING AT LEAST ONE BASAL INSULIN OF WHICH THE PI IS FROM 5.8 TO 8.5 AND A CO-POLYAMINO ACID BEARING CARBOXYLATE CHARGES AND HYDROPHOBIC RADICALS AND A LIMITED AMOUNT OF M-CRESOL” (ADOCIA, priority 2018, published 2021)", "origin": "cited, not measured here", "details": "patients", "data": [{"substance": "insulin glargine", "values": [{"measurement": "period over which the hypoglycemic effect is almost constant", "result": 24, "unit": "h"}]}]}
